Experimental data published in paper PMC7072979, “Doxorubicin Inhibits Phosphatidylserine Decarboxylase and Modifies Mitochondrial Membrane Composition in HeLa Cells” (International Journal of Molecular Sciences, 2020).

Molecular target: T1, phosphatidylserine decarboxylase (PSD) (Homo sapiens, UniProt Q9UG56)
T1 construct: gene PISD; native endogenous enzyme in mitochondria isolated from HeLa cells (not purified); proenzyme self-cleaved into alpha and beta subunits
T1 sequence (Q9UG56 53-377): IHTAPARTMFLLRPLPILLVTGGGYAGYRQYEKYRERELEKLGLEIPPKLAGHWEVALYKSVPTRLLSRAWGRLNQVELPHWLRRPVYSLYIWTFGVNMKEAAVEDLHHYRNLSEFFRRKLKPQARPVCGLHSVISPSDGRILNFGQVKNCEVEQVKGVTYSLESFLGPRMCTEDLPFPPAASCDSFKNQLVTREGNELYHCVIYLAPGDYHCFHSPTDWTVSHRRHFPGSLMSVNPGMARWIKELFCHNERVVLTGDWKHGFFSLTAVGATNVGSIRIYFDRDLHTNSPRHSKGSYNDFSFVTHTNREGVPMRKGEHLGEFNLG
T1 sequence (Q9UG56 378-409): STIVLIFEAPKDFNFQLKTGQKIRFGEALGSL
Assay: PE-NBD formation from PS-NBD, HPTLC fluorescence scan, isolated mitochondria
Type: biochemical

- inhibition at 5 µM: 48%
SMILES: COc1cccc2c1C(=O)c1c(O)c3c(c(O)c1C2=O)C[C@@](O)(C(=O)CO)C[C@@H]3O[C@H]1C[C@H](N)[C@H](O)[C@H](C)O1 [Doxorubicin]
